Data as given in US20240309005A1 (priority 2021, published 2024).
≈ marks a conversion by molar mass, not a printed value.

Experiment: physchem
Conditions: 25 °C, kinetic from dmso stock

Compound: C=CS(=O)(=O)Nc1ccc(-c2nc(OC3CCN(C(C)C)CC3)c3c(C)n[nH]c3n2)cc1 [Compound 1, N-(4-(4-((1-isopropylpiperidin-4-yl)oxy)-3-methyl-1H-pyrazolo[3,4-d]pyrimidin-6-yl)phenyl)ethenesulfonamide]
- solubility at 2 h (pH 5, fessif): 279 µM (≈ 127 µg/mL)
- solubility at 2 h (pH 7.4, aqueous buffer): 290 µM (≈ 132 µg/mL)

Compound: Cc1n[nH]c2nc(-c3ccc(NS(=O)(=O)c4ccc(C#N)cc4)cc3)nc(OC3CCN(C(C)C)CC3)c12 [Compound 3, 4-cyano-N-(4-(4-((1-isopropylpiperidin-4-yl)oxy)-3-methyl-1H-pyrazolo[3,4-d]pyrimidin-6-yl)phenyl)benzenesulfonamide]
- solubility at 2 h (pH 5, fessif): 325 µM (≈ 173 µg/mL)
- solubility at 2 h (pH 7.4, aqueous buffer): 19 µM (≈ 10.1 µg/mL)

Compound: Cc1n[nH]c2nc(-c3ccc(NS(=O)(=O)c4ccc(CN)cc4)cc3)nc(OC3CCN(C(C)C)CC3)c12 [Compound 4, 4-(aminomethyl)-N-(4-(4-((1-isopropylpiperidin-4-yl)oxy)-3-methyl-1H-pyrazolo[3,4-d]pyrimidin-6-yl)phenyl)benzenesulfonamide]
- solubility at 2 h (pH 5, fessif): 17.6 µM (≈ 9.43 µg/mL)
- solubility at 2 h (pH 7.4, aqueous buffer): 293 µM (≈ 157 µg/mL)

Compound: Cc1n[nH]c2nc(-c3ccc(NS(=O)(=O)C(C)C)cc3)nc(OC3CCN(C(C)C)CC3)c12 [Compound 5, N-(4-(4-((1-isopropylpiperidin-4-yl)oxy)-3-methyl-1H-pyrazolo[3,4-d]pyrimidin-6-yl)phenyl)propane-2-sulfonamide]
- solubility at 2 h (pH 5, fessif): 315 µM (≈ 149 µg/mL)
- solubility at 2 h (pH 7.4, aqueous buffer): 40 µM (≈ 18.9 µg/mL)

Compound: Cc1n[nH]c2nc(-c3ccc(NS(=O)(=O)N4CCCCC4)cc3)nc(OC3CCN(C(C)C)CC3)c12 [Compound 6, N-(4-(4-((1-isopropylpiperidin-4-yl)oxy)-3-methyl-1H-pyrazolo[3,4-d]pyrimidin-6-yl)phenyl)piperidine-1-sulfonamide]
- solubility at 2 h (pH 5, fessif): 258 µM (≈ 133 µg/mL)
- solubility at 2 h (pH 7.4, aqueous buffer): 299 µM (≈ 154 µg/mL)

Compound: Cc1n[nH]c2nc(-c3ccc(NS(=O)(=O)c4cc(Cl)ccc4F)cc3)nc(OCCN(C)C)c12 [Compound 8, 5-chloro-N-(4-(4-(2-(dimethylamino)ethoxy)-3-methyl-1H-pyrazolo[3,4-d]pyrimidin-6-yl)phenyl)-2-fluorobenzenesulfonamide]
- solubility at 2 h (pH 5, fessif): 91 µM (≈ 46 µg/mL)
- solubility at 2 h (pH 7.4, aqueous buffer): 0.23 µM (≈ 0.116 µg/mL)

Compound: Cc1n[nH]c2nc(-c3ccc(NS(=O)(=O)c4cc(Cl)ccc4F)cc3)nc(NCCN(C)C)c12 [Compound 9, 5-chloro-N-(4-(4-((2-(dimethylamino)ethyl)amino)-3-methyl-1H-pyrazolo[3,4-d]pyrimidin-6-yl)phenyl)-2-fluorobenzenesulfonamide]
- solubility at 2 h (pH 5, fessif): 289 µM (≈ 146 µg/mL)
- solubility at 2 h (pH 7.4, aqueous buffer): 8.5 µM (≈ 4.28 µg/mL)

Compound: Cc1n[nH]c2nc(-c3cnc(NS(=O)(=O)c4cc(Cl)ccc4F)nc3)nc(OC3CCN(C(C)C)CC3)c12 [Compound 12, 5-chloro-2-fluoro-N-(5-(4-((1-isopropylpiperidin-4-yl)oxy)-3-methyl-1H-pyrazolo[3,4-d]pyrimidin-6-yl)pyrimidin-2-yl) benzenesulfonamide]
- solubility at 2 h (pH 5, fessif): 33 µM (≈ 18.5 µg/mL)
- solubility at 2 h (pH 7.4, aqueous buffer): 2.5 µM (≈ 1.4 µg/mL)

Compound: Cc1n[nH]c2nc(-c3ccc(NS(=O)(=O)c4cc(Cl)ccc4F)cc3)nc(NCc3ccncc3)c12 [Compound 13, 5-chloro-2-fluoro-N-(4-(3-methyl-4-((pyridin-4-ylmethyl)amino)-1H-pyrazolo[3,4-d]pyrimidin-6-yl)phenyl)benzenesulfonamide]
- solubility at 2 h (pH 5, fessif): 5.81 µM (≈ 3.04 µg/mL)
- solubility at 2 h (pH 7.4, aqueous buffer): < 0.12 µM

Compound: Cc1n[nH]c2nc(-c3ccc(NS(=O)(=O)c4cc(Cl)ccc4F)cc3)nc(OC3CN(C(C)C)C3)c12 [Compound 17, 5-chloro-2-fluoro-N-(4-[4-[(1-isopropylazetidin-3-yl)oxy]-3-methyl-1H-pyrazolo[3,4-d]pyrimidin-6-yl]phenyl)benzenesulfonamide]
- solubility at 2 h (pH 5, fessif): 202 µM (≈ 107 µg/mL)
- solubility at 2 h (pH 7.4, aqueous buffer): 1.12 µM (≈ 0.595 µg/mL)

Compound: Cc1n[nH]c2nc(-c3ccc(NS(=O)(=O)c4ccccn4)cc3)nc(NCCN(C)CCO)c12 [Compound 20]
- solubility at 2 h (pH 5, fessif): 277 µM (≈ 134 µg/mL)
- solubility at 2 h (pH 7.4, aqueous buffer): 82 µM (≈ 39.6 µg/mL)

Compound: Cc1n[nH]c2nc(-c3ccc(NS(=O)(=O)c4cccnc4)cc3)nc(NCCN(C)CCO)c12 [Compound 21, N-[4-[4-([2-[(2-hydroxyethyl)(methyl)amino]ethyl]amino)-3-methyl-1H-pyrazolo[3,4-d]pyrimidin-6-yl]phenyl]pyridine-3-sulfonamide]
- solubility at 2 h (pH 5, fessif): 302 µM (≈ 146 µg/mL)
- solubility at 2 h (pH 7.4, aqueous buffer): 2.26 µM (≈ 1.09 µg/mL)

Compound: Cc1n[nH]c2nc(-c3ccc(NS(=O)(=O)c4cc(Cl)ccc4F)cc3)nc(NC3CN(C(C)C)C3)c12 [Compound 25, 5-chloro-2-fluoro-N-(4-(4-((1-isopropylazetidin-3-yl)amino)-3-methyl-1H-pyrazolo[3,4-d]pyrimidin-6-yl)phenyl)benzenesulfonamide]
- solubility at 2 h (pH 5, fessif): 301 µM (≈ 160 µg/mL)
- solubility at 2 h (pH 7.4, aqueous buffer): 15.6 µM (≈ 8.27 µg/mL)

Compound: Cc1n[nH]c2nc(-c3ccc(NS(=O)(=O)c4cc(Cl)ccc4F)cc3)nc(NCCN3CCOCC3)c12 [Compound 26, 5-chloro-2-fluoro-N-(4-(3-methyl-4-((2-morpholinoethyl)amino)-1H-pyrazolo[3,4-d]pyrimidin-6-yl)phenyl)benzenesulfonamide]
- solubility at 2 h (pH 5, fessif): 285 µM (≈ 156 µg/mL)
- solubility at 2 h (pH 7.4, aqueous buffer): 5.1 µM (≈ 2.78 µg/mL)

Compound: Cc1n[nH]c2nc(-c3ccc(NS(=O)(=O)c4cc(F)ccc4F)cc3)nc(NCCN3CCCC3)c12 [Compound 33, 2,5-difluoro-N-(4-(3-methyl-4-((2-(pyrrolidin-1-yl)ethyl)amino)-1H-pyrazolo[3,4-d]pyrimidin-6-yl)phenyl)benzenesulfonamide]
- solubility at 2 h (pH 5, fessif): 298 µM (≈ 153 µg/mL)
- solubility at 2 h (pH 7.4, aqueous buffer): 3.8 µM (≈ 1.95 µg/mL)

Compound: Cc1n[nH]c2nc(-c3ccc(NS(=O)(=O)c4cc(Cl)ccc4F)cc3)nc(O[C@H]3CCNC[C@H]3F)c12 [Compound 46, 5-chloro-2-fluoro-N-(4-(4-(((3R,4S)-3-fluoropiperidin-4-yl)oxy)-3-methyl-1H-pyrazolo[3,4-d]pyrimidin-6-yl)phenyl)benzenesulfonamide]
- solubility at 2 h (pH 5, fessif): 174 µM (≈ 93.1 µg/mL)
- solubility at 2 h (pH 7.4, aqueous buffer): 0.7 µM (≈ 0.374 µg/mL)

Compound: Cc1n[nH]c2nc(-c3ccc(NS(=O)(=O)c4cc(Cl)ccc4F)cc3)nc(O[C@H]3CCNC[C@@H]3F)c12 [Compound 47, 5-chloro-2-fluoro-N-(4-(4-(((3S,4S)-3-fluoropiperidin-4-yl)oxy)-3-methyl-1H-pyrazolo[3,4-d]pyrimidin-6-yl)phenyl)benzenesulfonamide]
- solubility at 2 h (pH 5, fessif): 211 µM (≈ 113 µg/mL)
- solubility at 2 h (pH 7.4, aqueous buffer): 16.8 µM (≈ 8.99 µg/mL)

Compound: Cc1n[nH]c2nc(-c3ccc(NS(=O)(=O)c4cc(Cl)ccc4F)cc3)nc(O[C@H]3CCNC3)c12 [Compound 48, 5-chloro-2-fluoro-N-(4-{3-methyl-4-[(3S)-pyrrolidin-3-yloxy]-1H-pyrazolo[3,4-d]pyrimidin-6-yl}phenyl)benzenesulfonamide]
- solubility at 2 h (pH 5, fessif): 178 µM (≈ 89.5 µg/mL)
- solubility at 2 h (pH 7.4, aqueous buffer): 63.6 µM (≈ 32 µg/mL)

Compound: Cc1n[nH]c2nc(-c3ccc(NS(=O)(=O)c4cc(Cl)ccc4F)cc3)nc(O[C@@H]3CNCC3(F)F)c12 [Compound 49, 5-chloro-N-(4-{4-[(4,4-difluoropyrrolidin-3-yl)oxy]-3-methyl-1H-pyrazolo[3,4-d]pyrimidin-6-yl}phenyl)-2-fluorobenzenesulfonamide]
- solubility at 2 h (pH 5, fessif): 265 µM (≈ 143 µg/mL)
- solubility at 2 h (pH 7.4, aqueous buffer): 0.27 µM (≈ 0.146 µg/mL)

Compound: Cc1n[nH]c2nc(-c3ccc(NS(=O)(=O)c4cc(Cl)ccc4F)cc3)nc(O[C@@H]3CCNC[C@H]3F)c12 [Compound 53, 5-chloro-2-fluoro-N-[4-(4-{[(3R,4R)-3-fluoropiperidin-4-yl]oxy}-3-methyl-1H-pyrazolo[3,4-d]pyrimidin-6-yl)phenyl]benzenesulfonamide]
- solubility at 2 h (pH 5, fessif): 283 µM (≈ 151 µg/mL)
- solubility at 2 h (pH 7.4, aqueous buffer): 11.3 µM (≈ 6.05 µg/mL)

Compound: Cc1n[nH]c2nc(-c3ccc(NS(=O)(=O)c4cc(Cl)ccc4F)cc3)nc(OC3CCNCC3)c12 [Compound 55, 5-chloro-2-fluoro-N-{4-[3-methyl-4-(piperidin-4-yloxy)-1H-pyrazolo[3,4-d]pyrimidin-6-yl]phenyl}benzenesulfonamide]
- solubility at 2 h (pH 5, fessif): 244 µM (≈ 126 µg/mL)
- solubility at 2 h (pH 7.4, aqueous buffer): 1.37 µM (≈ 0.708 µg/mL)

Compound: CCN1C[C@H](F)[C@H](Oc2nc(-c3ccc(NS(=O)(=O)c4cc(Cl)ccc4F)cc3)nc3[nH]nc(C)c23)C1 [Compound 56, 5-chloro-N-[4-(4-{[(3R,4S)-1-ethyl-4-fluoropyrrolidin-3-yl]oxy}-3-methyl-1H-pyrazolo[3,4-d]pyrimidin-6-yl)phenyl]-2-fluorobenzenesulfonamide]
- solubility at 2 h (pH 5, fessif): 73.7 µM (≈ 40.5 µg/mL)
- solubility at 2 h (pH 7.4, aqueous buffer): 0.48 µM (≈ 0.264 µg/mL)

Compound: Cc1n[nH]c2nc(-c3ccc(NS(=O)(=O)c4cc(Cl)ccc4F)cc3)nc(O[C@@H]3CN(C)C[C@@H]3F)c12 [Compound 58, 5-chloro-2-fluoro-N-[4-(4-{[(3R,4S)-4-fluoro-1-methylpyrrolidin-3-yl]oxy}-3-methyl-1H-pyrazolo[3,4-d]pyrimidin-6-yl)phenyl]benzenesulfonamide]
- solubility at 2 h (pH 5, fessif): 262 µM (≈ 140 µg/mL)
- solubility at 2 h (pH 7.4, aqueous buffer): 0.92 µM (≈ 0.492 µg/mL)

Compound: COc1ccnc(S(=O)(=O)Nc2ccc(-c3nc(O[C@@H]4CCN(C)C[C@@H]4F)c4c(C)n[nH]c4n3)cc2)c1 [Compound 62, N-[4-(4-{[(3S,4R)-3-fluoro-1-methylpiperidin-4-yl]oxy}-3-methyl-1H-pyrazolo[3,4-d]pyrimidin-6-yl)phenyl]-4-methoxypyridine-2-sulfonamide]
- solubility at 2 h (pH 5, fessif): 16.2 µM (≈ 8.55 µg/mL)
- solubility at 2 h (pH 7.4, aqueous buffer): 0.36 µM (≈ 0.19 µg/mL)

Compound: Cc1n[nH]c2nc(-c3ccc(NS(=O)(=O)c4cc(Cl)ccc4F)cc3)nc(O[C@@H]3CCN(CC(F)F)C[C@@H]3F)c12 [Compound 64, 5-chloro-N-[4-(4-{[(3S,4R)-1-(2,2-difluoroethyl)-3-fluoropiperidin-4-yl]oxy}-3-methyl-1H-pyrazolo[3,4-d]pyrimidin-6-yl)phenyl]-2-fluorobenzenesulfonamide]
- solubility at 2 h (pH 5, fessif): 6.43 µM (≈ 3.85 µg/mL)
- solubility at 2 h (pH 7.4, aqueous buffer): < 0.24 µM

Compound: [2H]C([2H])([2H])N1CC[C@@H](Oc2nc(-c3ccc(NS(=O)(=O)c4cc(Cl)ccc4F)cc3)nc3[nH]nc(C)c23)[C@@H](F)C1 [Compound 65, 5-chloro-2-fluoro-N-(4-(4-(((3S,4R)-3-fluoro-1-(methyl-d3)piperidin-4-yl)oxy)-3-methyl-1H-pyrazolo[3,4-d]pyrimidin-6-yl)phenyl)benzenesulfonamide]
- solubility at 2 h (pH 5, fessif): 210 µM (≈ 116 µg/mL)
- solubility at 2 h (pH 7.4, aqueous buffer): 0.73 µM (≈ 0.403 µg/mL)

Compound: Cc1n[nH]c2nc(-c3ccc(NS(=O)(=O)c4ccccn4)cc3)nc(O[C@@H]3CCN(C)C[C@@H]3F)c12 [Compound 66, N-[4-(4-{[(3S,4R)-3-fluoro-1-methylpiperidin-4-yl]oxy}-3-methyl-1H-pyrazolo[3,4-d]pyrimidin-6-yl)phenyl]pyridine-2-sulfonamide]
- solubility at 2 h (pH 5, fessif): 32.9 µM (≈ 16.4 µg/mL)
- solubility at 2 h (pH 7.4, aqueous buffer): 1.51 µM (≈ 0.751 µg/mL)
